Experimental findings from patent US20110112192A1, “VERFAHREN ZUR GERUCHSEXTINKTION” (priority 2007, published 2011) are described below.

Assay [1] in a line: Administration of acetylcysteine before the consumption of a garlic containing meal. The assay is classed as in vivo, human. As to conditions: administration about 10 minutes before the meal; 50 mg female, 75 mg male test persons; 15 tests per person. The method, then:
2. Administration of an acetylcysteine before the consumption of a garlic containing meal Battery of tests and dosage applied the same as under 1. The administration of acetylcysteine was done about 10 minutes before the meal.

Assay [2] can be described thus: Administration of acetylcysteine after the consumption of a garlic containing meal. The assay is classed as in vivo, human. Conditions: ACC-fizzing tablets (Hexal) given after the meal; 50 mg female test persons (32 to 74 kg), 75 mg male test persons (52 to 98 kg); 15 tests per person. The method, then:
1. Administration of acetylcysteine after the consumption of a garlic containing meal Battery of tests with 15 tests per person. Dosing: 50 mg with female test persons (32 to 74 kg body weight) i. 75 mg with male test persons (52 to 98 kg body weight) In these tests, the ACC-fizzing tablets of the Hexal company were applied. The positive test results were observed each within a time window of 10 to 20 minutes after administration of the acetylcysteine.

Consider `CC(=O)N[C@@H](CS)C(=O)O` [acetylcysteine], for which, in assay [1], the “odor formation after garlic containing meal” value is reported as “odor formation was likewise prevented”. In addition, the “odor after garlic containing meal” value in assay [2] is recorded as “no odor in all tests”.
